Bounds are passed on as bounds.

This note sets out measurements from article PMC8722130 (Progress in biophysics and molecular biology, 2021).

The target of data set [1] is uracil DNA-glycosylase (UDG) (Homo sapiens, UniProt P13051). In words: co-crystal structure. It counts as binding.
In data set [2] the target is human UDG (mitochondrial, 6xHis; XTAL Biostructures) (Homo sapiens, UniProt P13051-2 82-304). In words: thermal shift.
Chain of human UDG (mitochondrial, 6xHis; XTAL Biostructures) (P13051 91-313): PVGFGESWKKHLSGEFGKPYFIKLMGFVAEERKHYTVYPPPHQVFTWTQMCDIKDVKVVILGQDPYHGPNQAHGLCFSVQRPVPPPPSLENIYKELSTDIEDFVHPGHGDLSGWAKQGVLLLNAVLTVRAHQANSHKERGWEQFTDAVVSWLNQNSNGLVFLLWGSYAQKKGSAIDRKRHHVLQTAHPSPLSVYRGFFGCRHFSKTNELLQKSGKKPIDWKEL

Chain of uracil DNA-glycosylase (UDG) (P13051 whole entry): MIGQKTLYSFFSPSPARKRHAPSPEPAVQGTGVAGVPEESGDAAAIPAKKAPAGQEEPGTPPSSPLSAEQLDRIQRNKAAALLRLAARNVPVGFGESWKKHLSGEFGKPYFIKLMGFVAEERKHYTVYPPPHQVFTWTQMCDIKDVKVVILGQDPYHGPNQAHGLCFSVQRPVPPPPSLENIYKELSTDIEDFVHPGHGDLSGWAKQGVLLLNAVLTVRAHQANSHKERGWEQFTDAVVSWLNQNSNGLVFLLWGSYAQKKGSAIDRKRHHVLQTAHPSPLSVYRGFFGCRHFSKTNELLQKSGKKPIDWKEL

What is called Kd is the free concentration of one partner at which half of the binding sites on the other are occupied at equilibrium, for simple one-to-one binding. Low readings indicate tighter binding, high ones weaker binding. Turning to `O=C(O)C1=CC(=C(c2ccc(O)c(C(=O)O)c2)c2ccc(O)c(C(=O)O)c2)C=CC1=O` [aurintricarboxylic acid], the Kd in data set [1] was less than 700 nM.

Regarding GCACUUAAGAAUUGCAAUUCUUAAGUGC (structured_DNA, U in place of T (deoxyuridine, nine U:A pairs stated)) [uracil DNA hairpin], the binding result in data set [2] is “binds”.
